Literature values as cited in patent US9820956B2, “Compositions and methods for treating metabolic disorders” (PreKUlab, Ltd., priority 2003, dated 2017).
Like-named read-outs stand apart in the source and are kept apart here.

Legend:
[1] = system: BBB transport system for basic amino acids
[2] = system: BBB transport system for acidic amino acids
[3] = system: Phe transport in Caco-2 cells; conditions: for % inhibition of Phe transport: 10 μM Phe, 1 mM of each competing amino acid, Caco-2 monolayers; for inhibition of Phe transport in human intestinal epithelial cells (in words): Caco-2
[4] = system: intestinal epithelia transport
[5] = system: LNAA transport system in the BBB
[6] = absolute Km at BBB, basic amino acids, read-out: Km
[7] = apparent Km at BBB, basic aa's, read-out: Km(app)
[8] = absolute Km at BBB, neutral amino acid system, read-out: Km
[9] = apparent Km at BBB in presence of competing LNAAs, LNAA's, read-out: Km(app)

Row | Structure (SMILES) | Km [4] [mM] | Km [5, 8] [µM] | Km [5, 9] [µM] | % inhibition of Phe transport [3] [%] | further results
1 | N=C(N)NCCC[C@H](N)C(=O)O [Arg, arginine] |  |  |  |  | Km [1, 6]: 90 µM; Km [1, 7]: 400 µM
2 | N[C@@H](CCC(=O)O)C(=O)O [Glu] |  |  |  |  | Km [2]: 40 µM
3 | N[C@@H](Cc1c[nH]cn1)C(=O)O [His, histidine] | 6 |  |  | 33 | Km [1, 6]: 280 µM; Km [1, 7]: 1100 µM
4 | NCCCC[C@H](N)C(=O)O [Lys, lysine] |  |  |  | 50 | Km [1, 6]: 100 µM; Km [1, 7]: 250 µM; inhibition of Phe transport in human intestinal epithelial cells (in words) [3]: strong inhibition
5 | N[C@@H](Cc1ccccc1)C(=O)O [Phe, phenylalanine] | 1 | 120 | 450 |  | Km ([3]; Caco-2, measured by Hidalgo, read-out: Km for Phe at the intestinal cell transport system): 560 µM
6 | N[C@@H](Cc1c[nH]c2ccccc12)C(=O)O [Trp, tryptophan] |  | 190 | 710 | 36 | 
7 | N[C@@H](Cc1ccc(O)cc1)C(=O)O [Tyr, tyrosine] |  | 160 | 580 | 45 | 

Further lines, with some results ahead:

Row | Km [4] [mM] | Km [5, 8] [µM] | Km [5, 9] [µM] | Structure (SMILES) | % inhibition of Phe transport [3] [%] | further results
8 | 2 | 150 | 530 | CC(C)C[C@H](N)C(=O)O [Leu, leucine] | 55 | inhibition of Phe transport in human intestinal epithelial cells (in words) [3]: strong inhibitor
9 | 5 | 190 | 770 | CSCC[C@H](N)C(=O)O [Met, methionine] |  | 
10 |  | 730 | 3000 | C[C@@H](O)[C@H](N)C(=O)O [Threo] |  | 
11 | 3 | 630 | 2500 | CC(C)[C@H](N)C(=O)O [Val, valine] |  | 
12 |  | 330 | 1300 | CC[C@H](C)[C@H](N)C(=O)O [iLeu, isoleucine] |  | 
